Columns and labels:
[1] = molecular target: T1, P-glycoprotein (P-gp, MDR1) (Homo sapiens, UniProt P08183); assay: [3H]vinblastine radioligand competition and inhibition of [3H]azidopine photoaffinity labelling of the […] kDa P-gp band; type: binding
T1 construct: gene ABCB1

[2] = molecular target: T1, P-glycoprotein (P-gp, MDR1); assay: radioligand binding with self-competition by unlabelled vinblastine

T1 sequence (P08183 whole entry): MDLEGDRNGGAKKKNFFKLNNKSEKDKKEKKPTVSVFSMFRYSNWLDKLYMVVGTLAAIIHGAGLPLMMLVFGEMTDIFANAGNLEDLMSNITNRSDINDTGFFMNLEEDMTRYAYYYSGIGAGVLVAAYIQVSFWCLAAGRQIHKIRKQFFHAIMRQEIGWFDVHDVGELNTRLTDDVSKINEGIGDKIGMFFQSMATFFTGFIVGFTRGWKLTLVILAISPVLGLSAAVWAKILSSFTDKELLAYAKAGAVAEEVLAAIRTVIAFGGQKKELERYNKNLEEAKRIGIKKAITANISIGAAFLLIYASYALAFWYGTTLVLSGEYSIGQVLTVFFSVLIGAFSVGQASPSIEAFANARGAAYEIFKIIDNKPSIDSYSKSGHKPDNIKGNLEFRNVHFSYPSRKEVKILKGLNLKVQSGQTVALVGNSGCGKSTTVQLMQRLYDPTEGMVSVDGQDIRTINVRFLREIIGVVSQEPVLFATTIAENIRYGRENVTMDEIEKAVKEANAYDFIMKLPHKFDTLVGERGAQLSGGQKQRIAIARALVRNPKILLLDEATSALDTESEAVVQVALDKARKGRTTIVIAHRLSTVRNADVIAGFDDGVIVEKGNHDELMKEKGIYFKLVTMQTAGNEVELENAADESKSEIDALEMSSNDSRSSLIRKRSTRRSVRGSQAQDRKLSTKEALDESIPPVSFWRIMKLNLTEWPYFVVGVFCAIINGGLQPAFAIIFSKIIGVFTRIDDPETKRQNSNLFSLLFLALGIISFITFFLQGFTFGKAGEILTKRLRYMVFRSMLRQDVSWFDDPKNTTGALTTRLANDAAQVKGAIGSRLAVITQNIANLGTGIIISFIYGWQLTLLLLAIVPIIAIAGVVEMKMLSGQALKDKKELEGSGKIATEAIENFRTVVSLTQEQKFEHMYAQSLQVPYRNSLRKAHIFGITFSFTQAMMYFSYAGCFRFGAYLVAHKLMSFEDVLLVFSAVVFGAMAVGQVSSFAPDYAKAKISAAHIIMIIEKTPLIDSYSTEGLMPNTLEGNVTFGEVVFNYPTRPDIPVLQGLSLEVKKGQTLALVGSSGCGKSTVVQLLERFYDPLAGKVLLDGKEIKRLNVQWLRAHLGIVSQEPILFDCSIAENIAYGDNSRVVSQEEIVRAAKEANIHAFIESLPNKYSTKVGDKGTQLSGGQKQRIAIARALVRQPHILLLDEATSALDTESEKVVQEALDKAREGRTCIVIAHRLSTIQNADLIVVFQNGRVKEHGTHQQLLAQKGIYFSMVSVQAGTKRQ

Compound	[3H]vinblastine radioligand competition and inhibition of [3H]azidopine photoaff [1]	radioligand binding with self-competition by unlabelled vinblastine [2]
CN(C)CCCn1cc(C2=C(c3c[nH]c4ccccc34)C(=O)NC2=O)c2ccccc21 [GF 109203X]	Inhibition of the photo- affinity labelling was observed in a similar micromolar	–
CC[C@]1(O)C[C@@H]2CN(CCc3c([nH]c4ccccc34)[C@@](C(=O)OC)(c3cc4c(cc3OC)N(C)[C@H]3[C@@](O)(C(=O)OC)[C@H](OC(C)=O)[C@]5(CC)C=CCN6CC[C@]43[C@@H]65)C2)C1 [vinblastine sulphate]	–	Competition of [3H]vinblastine sulphate binding by unlabelled vinblastine sulphate was included as a control.

— article PMC2074754, “Effects of the selective bisindolylmaleimide protein kinase C inhibitor GF 109203X on P-glycoprotein-mediated multidrug resistance” (British Journal of Cancer, 1996)
